Molecules are shown by their SMILES. pEC50: −log10 of the molar value. Where a name gives a salt, the structure may show the parent alone.

This passage reports EC50 results from patent US9187435B2, “Bridged Spiro[2.4]heptane ester derivatives” (Actelion Pharmaceuticals Ltd., priority 2010, dated 2015).

This test addresses T1, human ALX receptor (Homo sapiens, UniProt P25090).
T1 construct: expressed in transfected cells; host or cells: HEK293 (HEK293-hALXR-Gα16)
T1 sequence (P25090 1-351): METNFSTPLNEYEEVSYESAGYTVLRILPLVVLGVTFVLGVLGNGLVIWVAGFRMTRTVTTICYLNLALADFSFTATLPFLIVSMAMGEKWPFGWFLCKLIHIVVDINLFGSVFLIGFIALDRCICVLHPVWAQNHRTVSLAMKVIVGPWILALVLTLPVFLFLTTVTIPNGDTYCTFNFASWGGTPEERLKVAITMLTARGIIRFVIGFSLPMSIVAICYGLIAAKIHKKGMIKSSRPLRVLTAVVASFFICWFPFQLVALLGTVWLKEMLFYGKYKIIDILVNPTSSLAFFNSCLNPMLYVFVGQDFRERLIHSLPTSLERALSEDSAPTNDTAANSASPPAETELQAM
The test can be described thus: Intracellular calcium measurements (FLIPR) in HEK293-hALXR-Gα16 cells, agonistic activity. Type of test: cell-based. To be noted: values normalized to WKYMVm 10 nM. The procedure:
The ALX receptor and FPRL2 agonistic activities of the compounds of formula (I) are determined in accordance with the following experimental method.
Intracellular Calcium Measurements:
Cells expressing recombinant human ALX receptor and the G-protein Gα16 (HEK293-hALXR-Gα16) were grown to 80% confluency in Growing Medium (GM). Cells were detached from culture dishes with a cell dissociation buffer (Invitrogen, 13151-014), and collected by centrifugation at 1,000 rpm at rt for 5 min in Assay Buffer (AB) (equal parts of Hank's BSS (Gibco, 14065-049) and DMEM without Phenol Red (Gibco, 11880-028)). After 60 min incubation at 37° C. under 5% CO2 in AB supplemented with 1 μM Fluo-4 (AM) (Invitrogen, F14202), and 20 mM HEPES (Gibco, 15630-056), the cells were washed and resuspended in AB. They were then seeded onto 384-well FLIPR assay plates (Greiner, 781091) at 50,000 cells in 70 μl per well and sedimented by centrifugation at 1,000 rpm for 1 min. Stock solutions of test compounds were made up at a concentration of 10 mM in DMSO, and serially diluted in AB to concentrations required for activation dose response curves. WKYMVm (Phoenix Peptides) was used as a reference agonist. FLIPR384 or FLIPR Tetra instruments (Molecular Devices) were operated according to the manufacturer's standard instructions, adding 4 μl of test compound dissolved at 10 mM in DMSO and diluted prior to the experiment in assay buffer to obtain the desired final concentration. Changes in fluorescence were monitored before and after the addition of test compounds at lex=488 nm and lem=540 nm. Emission peak values above base level after compounds addition were exported after base line subtraction. Values were normalized to high-level control (WKYMVm compound, 10 nM final concentration) after subtraction of the base line value (AB addition).
On the technique in general: A change in cytosolic calcium serves as a functional read-out for many receptors and channels.

Take `Cc1cc(CNC(=O)[C@H]2[C@H](C(=O)OCCOCCN3CCCC3)[C@H]3CC[C@@H]2C32CC2)no1` [Example 33, (1S,2R,3R,4R)-[2-(2-(Pyrrolidin-1-yl)ethoxy)ethyl 2-(((5-methylisoxazol-3-yl)methyl)carbamoyl)spiro[bicyclo[2.2.1]heptane-7,1′-cyclopropane]-3-carboxylate]]: the pEC50 (as a rule, −log10 of the EC50, conventionally taken in molar units) is 7.51.
The figure for `Cc1cc(CNC(=O)[C@H]2[C@H](C(=O)OCCOCCN3CC[C@H](F)C3)[C@H]3CC[C@@H]2C32CC2)no1` [Example 34, (1S,2R,3R,4R)-[(S)-2-(2-(3-Fluoropyrrolidin-1-yl)ethoxy)ethyl 2-(((5-methylisoxazol-3-yl)methyl)carbamoyl)spiro[bicyclo[2.2.1]heptane-7,1′-cyclopropane]-3-carboxylate]] is 7.67; for `O=C(Nc1ccc(Br)cc1)C1C(C(=O)OCC2CCNCC2)C2C=CC1C21CC1` [Example 35, (1R,4S,5R,6R)-[Piperidin-4-ylmethyl 5-((4-bromophenyl)carbamoyl)spiro[bicyclo[2.2.1]hept[2]ene-7,1′-cyclopropane]-6-carboxylate]] it is 8.54; for `O=C(OCCC1CCNCC1)[C@H]1[C@H](C(=O)Nc2ccc(Br)nc2)[C@@H]2CC[C@H]1C21CC1` [Example 36, (1S,2R,3R,4R)-[2-(Piperidin-4-yl)ethyl 2-((6-bromopyridin-3-yl)carbamoyl)spiro[bicyclo[2.2.1]heptane-7,1′-cyclopropane]-3-carboxylate]hydrochloride] it is 9.40.
For `O=C(OCCN1CCNCC1)[C@H]1[C@H](C(=O)Nc2ccc(Br)nc2)[C@@H]2CC[C@H]1C21CC1` [Example 37, (1S,2R,3R,4R)-[2-(piperazin-1-yl)ethyl 2-((6-bromopyridin-3-yl)carbamoyl)spiro[bicyclo[2.2.1]heptane-7,1′-cyclopropane]-3-carboxylate]dihydrochloride], the pEC50 is 8.85.
The figure for `O=C(OCCC1(F)CCNCC1)[C@H]1[C@H](C(=O)Nc2ccc(Br)nc2)[C@@H]2CC[C@H]1C21CC1` [Example 40, (1S,2R,3R,4R)-[2-(4-Fluoro-piperidin-4-yl)ethyl 2-((6-bromopyridin-3-yl)carbamoyl)spiro[bicyclo[2.2.1]heptane-7,1′-cyclopropane]-3-carboxylate]] is 8.34; for `O=C(OCC1CCNCC1)[C@H]1[C@H](C(=O)Nc2ccc(Br)nc2)[C@@H]2CC[C@H]1C21CC1` [Example 41, (1S,2R,3R,4R)-[(Piperidin-4-yl)methyl 2-((6-bromopyridin-3-yl)carbamoyl)spiro[bicyclo[2.2.1]heptane-7,1′-cyclopropane]-3-carboxylate]hydrochloride] it is 8.28; for `Cc1cc(CNC(=O)[C@H]2[C@H](C(=O)OCCOCCN3CC[C@H](F)C3)[C@H]3CC[C@@H]2C32CC2)on1` [Example 42, (1S,2R,3R,4R)-[(S)-2-(2-(3-Fluoropyrrolidin-1-yl)ethoxy)ethyl 2-(((3-methylisoxazol-5-yl)methyl)carbamoyl)spiro[bicyclo[2.2.1]heptane-7,1′-cyclopropane]-3-carboxylate]] it is 8.14.
The figure for `NCc1cccc(COC(=O)[C@H]2[C@H](C(=O)Nc3ccc(Br)nc3)[C@@H]3CC[C@H]2C32CC2)c1` [Example 45, (1S,2R,3R,4R)-[3-(Aminomethyl)benzyl 2-((6-bromopyridin-3-yl)carbamoyl)spiro[bicyclo[2.2.1]heptane-7,1′-cyclopropane]-3-carboxylate]] is 8.03; for `Cc1cc(CNC(=O)[C@H]2[C@H](C(=O)OCCC3CCNCC3)[C@H]3CC[C@@H]2C32CC2)no1` [Example 47, (1S,2R,3R,4R)-[2-(Piperidin-4-yl)ethyl 2-(((5-methylisoxazol-3-yl)methyl)carbamoyl)spiro[bicyclo[2.2.1]heptane-7,1′-cyclopropane]-3-carboxylate]] it is 8.01.
